Results reported in US10884004B2, “Taggable fluorescent probe for calcium ion detection” (The University of Tokyo, priority 2016, dated 2021).

What was measured:
[1] = in vitro Ca2+ titration of the esterase hydrolysate of Compound 14 in Ca2+ buffer (spectrofluorophotometer); assay type: binding; settings: hydrolysate obtained by esterase treatment; buffer with adjusted Ca2+ concentration (100 mM KCl, 30 mM MOPS)
Procedure: A 100 μL PBS solution containing Compound 14 (final concentration 80 μM), Pluronic F127 (0.2%), and Esterase Pseudomonas fluorescens (0.42 units/μL) (SIGMA) was prepared and hydrolysis reaction was carried out at 37° C. To follow the time course of the reaction, a part of the sample was taken during the reaction and the fluorescence intensity in 10 mM Ca^2+ buffer was measured with a spectrofluorophotometer (JASCO, FP-6500). When the fluorescence intensity ceased to change almost completely, the reaction was stopped to obtain a hydrolysate of Compound 14.
A free Ca^2+ concentration in a buffer containing 100 mM KCl and 30 mM 3-morpholinopropanesulfonic acid (MOPS) was adjusted using a Ca-ethylene glycol tetraacetic acid (EGTA) system (0-1 μM), a Ca-nitrilotriacetic acid (NTA) system (3.2 μM-794.3 μM), an unbuffered system (CaCl2) (3.2 mM-10 mM). The adjustment of free Ca^2+ concentration in the Ca-EGTA system or in the Ca-NTA system was carried out using the following formula (1). […]
In order to evaluate the chemical characteristics of the synthesized Compound 14, a hydrolysate was obtained by esterase treatment according to the above method, and the fluorescence intensity in a buffer in which the Ca^2+ concentration was adjusted was measured with a spectrofluorophotometer.

[2] = system: HEK 293T/Halo-RimZF-CAAX; assay: staining / localization in HEK 293T cells expressing HaloTag protein on the cell membrane; assay type: cell-based; settings: 5 μM probe, Ringer's solution, 30 minutes, room temperature
Procedure: (§1) HEK 293T cells (GenHunter) were cultured in Dulbecco's Modified Eagle's Medium (DMEM) (Wako) containing 10% FBS, 4 mM L-glutamine (Wako), and 1 mM sodium pyruvate (Wako) at 37° C. in an atmosphere of 5% CO2. For nerve cells, a fetus was removed from Sprague-Dawley rat on day 21 of pregnancy under anesthesia, and the hippocampus immediately extracted from the fetal brain was digested with trypsin (Invitrogen) and DNase I (Sigma) to separate nerve cells. The nerve cells were cultured on a monolayer of glial cells in a Neurobasal A medium (Invitrogen) containing 2% B-27 supplement (Invitrogen), 1 mM sodium pyruvate (Wako), 1% glutamax (Invitrogen), 1% penicillin-streptomycin mixed solution (nacalai tesque) at 37° C. in an atmosphere of 5% CO2.
Next, a DNA fragment encoding HaloTag and a DNA fragment encoding RimZF were fused by PCR. At this time, a DNA fragment expressing a fusion protein of HaloTag, RimZF, and CAAX motif was obtained by adding a DNA sequence encoding a CAAX motif of the KRas gene (KMSKDGKKKKKKSKTKC-VIM) to the primer. […]
(§2) Fluorescence images were acquired using an inverted microscope (IX-71, Olympus), an EM-CCD camera (Andor, iXon), an objective lens ([…]), and a filter set for RFP. […]

[3] = in situ calibration of the labeled probe in fixed, permeabilized HEK 293T/Halo-RimZF-CAAX; assay type: cell-based; settings: probe labeled on HEK 293T/Halo-RimZF-CAAX, 4% PFA fixed, 20 μM digitonin
Procedure: (§3) HEK 293T cells were seeded in metal rings on a cover glass coated with 0.01% collagen and 25 μg/ml poly-L-lysine (nacalai tesque) 16 hours after gene transfer so that the number of cells per ring was 40,000 and cultured at 37° C. and a carbon dioxide concentration of 5%. Three and a half hours later, the extracellular fluid was replaced with Ringer's solution (5 mM HEPES, 150 mM NaCl, 4 mM KCl, 2 mM CaCl2, 1 mM MgCl2, 0.1% glucose, pH 7.2) containing a Ca^2+ probe (compound 14 or Calcium Green, AM (Invitrogen)) or a fluorescent ligand (halo TMR, halo Oregon) (final concentration 5 μM) and 0.02% Plulonic F127 and left to stand at room temperature for 30 minutes while being shielded from light. The cells labeled with compound 14 and the fluorescent ligand was then exchanged with serum-free DMEM, removal of probes that were liberated at 5% carbon dioxide concentration and 37° C. was carried out for 30 minutes, and the extracellular solution was exchanged again with Ringer's solution. […]
The labeled HEK 293T/Halo-RimZF-CAAX was immobilized with 4% PFA/PBS for 10 minutes, subjected to membrane permeabilization with 20 μM digitonin, and a change in fluorescence when the Ca^2+ concentration of the extracellular solution was changed was measured.
Next, Ca^2+ response characteristics of the labeled probe were evaluated by in situ calibration.

[4] = system: HEK 293T/Halo-RimZF-CAAX; assay: Ca2+ imaging on ionomycin stimulation of probe-labeled HEK 293T/Halo-RimZF-CAAX; assay type: cell-based; settings: ionomycin (10 μM); local Ca2+ signal on the cell membrane
Procedure: as §3, with “light.” for “light. The cells labeled with compound 14 and the fluorescent ligand was then exchanged with serum-free DMEM, removal of probes that were liberated at 5% carbon dioxide concentration and 37° C. was carried out for 30 minutes, and the extracellular solution was exchanged again with Ringer's solution.”
as §2
In addition, ionomycin was added to a probe-labeled HEK 293T/Halo-RimZF-CAAX in order to see the response characteristics to the Ca^2+ signal induced by the ionophore, and then changes with time of the fluorescence intensity were measured (FIG. 5). […]

[5] = system: Rat hippocampus-derived nerve cells; assay: Ca2+ imaging on electrical stimulation of probe-labeled hippocampus-derived nerve cells; assay type: cell-based; settings: electrical stimulation 10 times at 100 Hz; HaloTag fusion protein expressed in nerve cells
Procedure: as §1
A DNA fragment obtained by fusing a sequence encoding a HaloTag protein in series on the C-terminal side of the DNA sequence encoding the vesicular membrane […] transporter (VGLUT1) was subcloned into a lentiviral vector (pLenti6PW) to prepare pLenti vglut1-chalo. […]
as §2

CC(=O)OCOC(=O)COc1cc(NC(=O)c2ccc3c(c2)C(=O)OC32c3cc(Cl)c(OC(C)=O)cc3Oc3cc(N4CC(C(=O)NCCOCCOCCCCCCCl)C4)c(Cl)cc32)ccc1N(CC(=O)OCOC(C)=O)CC(=O)OCOC(C)=O (centres unmarked) [Compound 14, bis(acetoxymethyl) 2,2′-((4-(3′-acetoxy-2′,7′-dichloro-6′-(3-((2-(2-((6-chlorohexyl)oxy)ethoxy)ethyl)carbamoyl)azetidin-1-yl)-3-oxo-3H-spiro[isobenzofuran-1,9′-xanthene]-5-carboxylic acid amido)-2-(2-(acetoxymethoxy)-2-oxoethoxy)phenyl)azanediyl) diacetate]
Fmax/Fmin (fluorescence intensity of Ca2+-bound vs unbound probe) [1]: 10.8 | localization of fluorescence after staining [2]: fluorescence localized on the cell membrane on which the HaloTag protein is expressed was observed | Fmax/Fmin [3]: 4.7 | change in fluorescence intensity due to ionomycin stimulation [4]: increased the fluorescence intensity | Ca2+ signal change on electrical stimulation [5]: a Ca^2+ signal change corresponding to the stimulus was observed
